Data published in patent US20150050299A1, “METHODS FOR ENHANCING IMMUNE RESPONSE” (priority 2010, published 2015).

How the values were obtained:
[1] = system: squamous cell carcinomas (SCCs); type: in vivo
Procedure: The combination therapy of polyamine biosynthesis/uptake inhibition was tested against the K6/ODC transgenic mouse murine squamous cell carcinoma (SCC) model recently described.^98 The K6/ODC model was developed to assess whether ODC overexpression was a contributing cause, or an effect of malignant transformation. […] While most skin tumorigenesis models yielded benign squamous papillomas as the predominant tumor type, when the K6/ODC transgene was expressed on the FVB/N strain background, the majority of tumors that developed were aggressive squamous cell carcinomas. These SCCs appeared as early as 5 weeks after treatment and in high multiplicities (up to four tumors per mouse), making this a very efficient model for SCC induction. Using this model, we were thus able to conclude that over-expression of ODC is a sufficient condition for tumor promotion in mouse skin.^99
We conducted an in vivo anti-tumor trial of DFMO combined with either the D-C16-acyl Lys-spm conjugate AMXT 1501 (FIG. 4) or the L-C16-alkyl AMXT 1569 analog (FIG. 5) in the K6/ODC SCC model.
The concentration of AMXT 1501 was 14 μg/ml, or an average daily dose of ˜50-65 μg (equivalent to ˜3 mg/kg/d). […] It is expected that great improvements in the oral bioavailability of AMXT 1501 would result from insightful drug formulation.

CXCR4 receptor = CXCR4 receptor (Homo sapiens, UniProt P61073); experiment: binding of radiolabeled SDF-1α to the CXCR4 receptor; conditions: 10 μM
Sequence of CXCR4 receptor (P61073 whole entry): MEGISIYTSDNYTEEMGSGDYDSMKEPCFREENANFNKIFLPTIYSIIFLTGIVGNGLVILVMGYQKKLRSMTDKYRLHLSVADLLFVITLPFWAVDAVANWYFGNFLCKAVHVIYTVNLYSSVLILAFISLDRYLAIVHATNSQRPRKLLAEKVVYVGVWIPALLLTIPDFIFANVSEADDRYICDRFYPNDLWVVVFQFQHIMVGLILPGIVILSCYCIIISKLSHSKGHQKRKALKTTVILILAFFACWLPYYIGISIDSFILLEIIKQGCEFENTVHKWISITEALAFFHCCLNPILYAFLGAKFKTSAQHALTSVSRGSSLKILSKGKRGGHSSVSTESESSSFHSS
Procedure: Alternative mechanisms might also be responsible for the observed immune inducing effects of PBT. The FDA-approved compound, plerixafor (also known as AMD3100), is used as a hematopoietic stem cell mobilizer for use in combination with granulocyte-colony stimulating factor (G-CSF) for peripheral blood collection and subsequent autologous transplantation in patients with non-Hodgkin's lymphoma and multiple myeloma. […] We tested the effect of 10 μM AMXT 1501 on the binding of radiolabeled SDF-1α to the CXCR4 receptor and found no inhibition. […] Since an interaction between AMXT 1501 and the CXCR4 receptor was not observed, a polyamine-dependant mechanism of immune-suppression is maintained.

human TLR 2 = human TLR 2 (Homo sapiens, UniProt O60603); experiment: Toll-Like Receptor (TLR) screening assay, TLR2; type: cell-based; conditions: 10 μM; control HKLM
Sequence of human TLR 2 (O60603 21-784): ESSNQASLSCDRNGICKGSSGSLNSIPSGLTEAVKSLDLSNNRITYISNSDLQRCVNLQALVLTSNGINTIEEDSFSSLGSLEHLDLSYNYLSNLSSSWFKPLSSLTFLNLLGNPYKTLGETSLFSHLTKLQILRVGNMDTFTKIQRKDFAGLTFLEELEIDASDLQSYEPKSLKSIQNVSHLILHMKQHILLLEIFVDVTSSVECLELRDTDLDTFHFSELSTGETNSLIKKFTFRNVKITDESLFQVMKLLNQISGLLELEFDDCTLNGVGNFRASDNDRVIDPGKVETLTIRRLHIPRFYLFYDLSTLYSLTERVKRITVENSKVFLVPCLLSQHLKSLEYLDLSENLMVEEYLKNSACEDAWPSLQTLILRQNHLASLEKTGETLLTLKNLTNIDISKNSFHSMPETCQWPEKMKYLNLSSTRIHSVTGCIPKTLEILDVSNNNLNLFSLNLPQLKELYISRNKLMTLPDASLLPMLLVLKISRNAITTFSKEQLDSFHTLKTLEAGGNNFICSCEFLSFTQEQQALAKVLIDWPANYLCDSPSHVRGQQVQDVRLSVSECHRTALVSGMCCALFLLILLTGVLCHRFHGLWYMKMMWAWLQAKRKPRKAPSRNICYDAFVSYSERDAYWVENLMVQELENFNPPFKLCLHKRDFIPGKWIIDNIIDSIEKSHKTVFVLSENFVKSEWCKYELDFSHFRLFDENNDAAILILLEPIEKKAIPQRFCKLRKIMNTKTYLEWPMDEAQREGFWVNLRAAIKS

human TLR4 = human TLR4 (Homo sapiens, UniProt O00206+Q9Y6Y9); experiment: Toll-Like Receptor (TLR) screening assay, TLR4; type: cell-based; conditions: 10 μM; control LPS
Sequence of human TLR4 (O00206 24-839): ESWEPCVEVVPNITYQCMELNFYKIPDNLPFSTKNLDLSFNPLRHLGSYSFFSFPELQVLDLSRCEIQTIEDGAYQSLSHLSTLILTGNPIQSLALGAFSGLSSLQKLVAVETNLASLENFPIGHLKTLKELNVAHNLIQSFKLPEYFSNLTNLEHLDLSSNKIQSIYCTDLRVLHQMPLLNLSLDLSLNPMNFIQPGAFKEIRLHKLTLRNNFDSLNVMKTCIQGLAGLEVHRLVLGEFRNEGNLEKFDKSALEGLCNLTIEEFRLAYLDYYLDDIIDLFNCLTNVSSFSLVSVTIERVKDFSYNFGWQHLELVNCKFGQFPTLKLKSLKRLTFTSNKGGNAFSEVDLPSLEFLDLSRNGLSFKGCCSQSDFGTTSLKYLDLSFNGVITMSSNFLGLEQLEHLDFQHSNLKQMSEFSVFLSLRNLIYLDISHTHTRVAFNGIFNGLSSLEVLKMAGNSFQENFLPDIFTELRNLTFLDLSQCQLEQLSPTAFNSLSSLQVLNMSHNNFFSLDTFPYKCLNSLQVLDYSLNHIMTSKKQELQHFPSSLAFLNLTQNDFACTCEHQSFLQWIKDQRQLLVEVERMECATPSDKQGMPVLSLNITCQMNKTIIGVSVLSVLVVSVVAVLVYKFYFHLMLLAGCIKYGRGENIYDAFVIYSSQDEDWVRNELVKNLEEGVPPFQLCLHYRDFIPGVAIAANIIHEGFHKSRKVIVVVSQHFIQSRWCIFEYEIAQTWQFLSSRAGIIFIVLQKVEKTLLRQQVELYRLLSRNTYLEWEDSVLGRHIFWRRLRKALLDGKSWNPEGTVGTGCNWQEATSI
Sequence of human TLR4 (Q9Y6Y9 17-160 limits assumed): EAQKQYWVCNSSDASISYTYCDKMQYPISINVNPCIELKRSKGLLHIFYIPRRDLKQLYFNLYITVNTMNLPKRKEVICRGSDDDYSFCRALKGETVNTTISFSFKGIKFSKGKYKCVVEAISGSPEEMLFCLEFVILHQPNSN

human TLR5 = human TLR5 (Homo sapiens, UniProt O60602); experiment: Toll-Like Receptor (TLR) screening assay, TLR5; type: cell-based; conditions: 10 μM
Sequence of human TLR5 (O60602 21-858): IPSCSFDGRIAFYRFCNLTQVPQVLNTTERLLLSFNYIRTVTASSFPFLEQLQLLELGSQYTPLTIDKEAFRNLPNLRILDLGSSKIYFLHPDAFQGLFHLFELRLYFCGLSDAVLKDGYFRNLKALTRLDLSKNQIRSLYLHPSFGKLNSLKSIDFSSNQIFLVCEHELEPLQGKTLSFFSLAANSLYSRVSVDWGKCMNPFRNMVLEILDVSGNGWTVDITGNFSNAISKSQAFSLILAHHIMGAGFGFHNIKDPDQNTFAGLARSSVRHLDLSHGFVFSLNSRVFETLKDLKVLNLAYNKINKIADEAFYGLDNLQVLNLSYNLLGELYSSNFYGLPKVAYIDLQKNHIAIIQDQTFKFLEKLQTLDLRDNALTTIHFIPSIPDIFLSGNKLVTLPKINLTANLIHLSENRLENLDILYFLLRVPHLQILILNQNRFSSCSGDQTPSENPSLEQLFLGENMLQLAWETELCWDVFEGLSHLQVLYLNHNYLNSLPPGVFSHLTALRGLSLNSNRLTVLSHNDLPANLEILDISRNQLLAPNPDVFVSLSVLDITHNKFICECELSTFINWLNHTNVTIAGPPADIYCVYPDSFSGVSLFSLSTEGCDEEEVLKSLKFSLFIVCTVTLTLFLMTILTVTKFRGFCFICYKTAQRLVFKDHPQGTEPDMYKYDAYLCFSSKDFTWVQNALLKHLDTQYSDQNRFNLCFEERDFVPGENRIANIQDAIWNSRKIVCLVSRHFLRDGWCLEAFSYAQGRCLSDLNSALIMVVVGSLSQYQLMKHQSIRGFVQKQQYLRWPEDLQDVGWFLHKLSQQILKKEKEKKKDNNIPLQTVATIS

human TLR8 = target: T1, human TLR8 (Homo sapiens, UniProt Q9NR97); experiment: Toll-Like Receptor (TLR) screening assay, TLR8; type: cell-based; conditions: 10 μM
T1 sequence (Q9NR97 27-1041): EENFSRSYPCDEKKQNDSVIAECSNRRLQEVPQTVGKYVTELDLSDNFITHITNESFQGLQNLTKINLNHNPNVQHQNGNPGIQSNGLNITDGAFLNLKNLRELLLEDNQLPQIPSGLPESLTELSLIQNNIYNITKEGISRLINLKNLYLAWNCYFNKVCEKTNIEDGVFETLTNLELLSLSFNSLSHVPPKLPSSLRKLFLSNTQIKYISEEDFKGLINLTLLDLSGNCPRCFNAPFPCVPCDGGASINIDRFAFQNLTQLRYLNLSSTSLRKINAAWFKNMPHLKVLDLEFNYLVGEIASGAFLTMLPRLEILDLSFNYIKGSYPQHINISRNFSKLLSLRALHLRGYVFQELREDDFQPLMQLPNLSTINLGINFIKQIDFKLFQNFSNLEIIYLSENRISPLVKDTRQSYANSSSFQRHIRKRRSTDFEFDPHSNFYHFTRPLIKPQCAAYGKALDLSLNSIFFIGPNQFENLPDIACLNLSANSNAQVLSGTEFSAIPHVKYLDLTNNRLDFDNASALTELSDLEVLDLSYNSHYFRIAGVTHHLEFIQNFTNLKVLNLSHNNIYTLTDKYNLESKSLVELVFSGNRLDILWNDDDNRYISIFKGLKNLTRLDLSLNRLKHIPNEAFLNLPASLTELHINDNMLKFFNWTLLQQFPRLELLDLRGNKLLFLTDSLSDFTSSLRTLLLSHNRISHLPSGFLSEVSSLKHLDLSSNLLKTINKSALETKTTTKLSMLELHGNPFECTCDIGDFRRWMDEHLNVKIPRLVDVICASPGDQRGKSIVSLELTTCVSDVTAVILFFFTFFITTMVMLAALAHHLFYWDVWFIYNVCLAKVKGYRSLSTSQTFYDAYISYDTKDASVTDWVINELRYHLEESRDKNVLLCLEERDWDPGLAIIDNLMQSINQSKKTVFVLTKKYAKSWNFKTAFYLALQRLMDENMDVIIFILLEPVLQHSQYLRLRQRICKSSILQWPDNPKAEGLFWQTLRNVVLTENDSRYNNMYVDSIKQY

[2] = system: human toll-like receptors (TLR); experiment: Toll-like receptor test, overall statement; type: cell-based; conditions: 10 μM
Text: While the role of HMGB1 in cancer biology is complex, the influence of spermine on this danger signaling biomolecule is well established. […] It could be that the tumor's propensity to secrete higher concentrations of spermine allow them to hide from the immune system by negating HMGB1 ability to stimulate an immune response. Therefore, the balance between pro-immune effects of HMGB1 and the counter-immune effects of spermine mediated through this pathway may be shifted by using PBT.

[3] = system: cultured cancer cell types (including MDA-MB-231, PC-3, A375 and SK-OV-3 among others); experiment: activity against cultured cancer cells in combination with DFMO; type: cell-based
Text: Cancer cells can circumvent the ability of drugs such as α-difluoromethylornithine (DFMO) based on inhibition of polyamine biosynthesis, from completely depleting their internal polyamines by the importation of these molecules from external sources. […] The resulting novel two-drug combination therapy targeting cellular polyamine metabolism has shown exceptional efficacy against cutaneous squamous cell carcinomas (SCCs) in a transgenic ornithine decarboxylase (ODC) mouse model developed by us for the study of skin cancer. […] The availability of a potent polyamine transport inhibitor allows, for the first time, for a real test of the hypothesis that starving cells of polyamines will lead to objective clinical response. This therapy is molecularly-targeted, relatively nontoxic at the proposed dose, and consists of both a very well-characterized drug and a member of a novel chemical class.

SMILES: CCCCCCCCCCCCCCCC(=O)NCCCC[C@@H](N)C(=O)NCCCNCCCCNCCCN [AMXT 1501, D-Lys(C16acyl)-Spm]
- anti-tumor response to single agent ([1]; agent alone): did not reduce tumor growth
- potency to inhibit tumor growth in combination with DFMO, AMXT 1501 versus AMXT 1569 ([1]; combined with DFMO): slightly better results
- inhibition of radiolabeled SDF-1α binding (CXCR4 receptor): no inhibition
- stimulatory effect on TLR2 (human TLR 2): 19 % of control
- stimulatory effect on TLR4 (human TLR4): 16 % of control
- activity on TLR5 (human TLR5): no significant activity
- activity on TLR8 (human TLR8): no significant activity
- stimulatory effect on human toll-like receptors [2]: no significant stimulatory effect
- nature of cell culture effects [3]: cytostatic and not cytotoxic
- potency compared with AMXT 1426 ([3]; in combination with DFMO): several orders of magnitude higher potency
